Tests used:
[1] = Hygroscopicity and storage behaviour of the granulate; format: physicochemical; settings: ground to the desired particle size
[2] = Tapped density of the granulate (U.S. Pharmacopoeia method); format: physicochemical; settings: for tapped density of the granulate: product of the humid melting process of the invention, USP 23 NF 18 method
Text: It is in fact known that an inadequately low density (for example, for L(−)-carnitine acid fumarate, a tapped density value below 0.7 g/mL) provides a too light and flaky product which involves serious processability problems. The bulk density is not a reliable parameter for granulated or powdery products, in that even imperceptible perturbations of the test sample can give rise to remarkably different bulk density values. For the characterization of the density of said materials the tapped density is preferably used, which is the limit density obtained after tapping down the material by subjecting a graduated cylinder containing the granulate or powder to strokes, namely by hoisting the cylinder to a fixed height then dropping it for a fixed number of times. The tapped density is usually determined according to the method described in U.S. Pharmacopoeia, National Formulary, Supplement, USP 23, NF 18, Nov. 15, 1997, pages 3976-3977. Said method is herein incorporated by reference. The material is passed through a 1 mm (n. 18 mesh) sieve to crush any agglomerates formed during storage. About 100 g (M) of the test material are placed without tapping down in a 250 mL graduated cylinder. Using a suitable device, the cylinder is hoisted then dropped under the action of its own weight, from a height of 14+2 mm, with a 300 times/minute fall frequency. The volume of the material after a first 500 fall cycle is then measured. […] The tapped density, in g/mL, is expressed by the formula: M/Vf.

Molecule	hygroscopicity of the granulate [1]	stability of the granulate in time (packing and/or aggregation) [1]	tapped density of the granulate [2]	Physico-chemical characteristics of the final compound ([2]; prepared in the presence of a crystallization initiator)
L(−)-carnitine Acid Fumarate [Example 1]	non-hygroscopic	remained unchanged in time without undergoing packing and/or aggregation	0.84 g/mL	–
C[N+](C)(C)C[C@H](O)CC(=O)O.C[N+](C)(C)C[C@H](O)CC(=O)O.O=C([O-])C(O)C(O)C(=O)[O-] [Example 3, L(−)-carnitine Tartrate (2:1)]	–	–	0.83 g/mL	–
L(−)-carnitine Acid Fumarate [Example 2]	–	–	–	the same as those obtained in the preparation of Example 1

Source: US6372940B1, “Process for the preparation of non-hygroscopic salts of L(−)-carnitine” (Sigma-Tau Industrie Farmaceutiche Riunite S.p.A, priority 1999, dated 2002)
